Measured values published in US20220089531A1, “NEW […] ACID DERIVATIVES, PHARMACEUTICALLY ACCEPTABLE SALT THEREOF, COMPOSITION THEREOF AND METHOD OF USE THEREOF” (THE GOVERNING COUNCIL OF THE UNIVERSITY OF TORONTO, priority 2018, published 2022).
“And” between values parts separate entries of the source, which are not always exact repeats. Identical values can stand only once. Like-named read-outs stand apart in the source and are kept apart here.

Experiments:
[1] = Intrinsic clearance in mouse hepatocyte; assay type: in vitro ADME; conditions: mouse, mouse hepatocytes, time points 0-120 minutes, read-out: In vitro T1/2 in mouse hepatocytes
Protocol: (§1) A stock of 100 μM test compound was prepared by diluting the 10 mM test compound in DMSO with a solution of 50% acetonitrile and 50% water. In a 96-well non-coated plate, 198 μL of hepatocytes was pipetted, and the plate was placed in the incubator on an orbital shaker to allow the hepatocytes to warm for 10 minutes. To this solution was added 2 μL of the 100 μM test compound to start the reaction, and the plate was placed on an orbital shaker. At time points of 0, 15, 30, 60, 90 and 120 minutes, the aliquots were mixed with a solution of acetonitrile and internal standard (100 nM alprazolam, 200 nM labetalol, and 2 μM ketoprofen) to terminate the reaction. The reaction solution was then vortexed for 10 minutes and centrifuged at 4,000 rpm for 30 minutes at 4° C. […] of the supernatant was transferred to one new 96-well plate, centrifuged at 4,000 rpm for 30 minutes at 4° C., and 100 μL of the supernatant was transferred to a new 96-well plate ensuring the pellet was not disturbed. 100 μL of ultrapure water was added to all samples for analysis by LC-MS/MS.
(§2) The in vitro half-life (T1/2) was determined by the linear regression of the natural logarithm of the remaining percentage of the parent drug vs. incubation time curve. The slope value (k) of the curve was then substituted into the following equation to determine the in vitro half-life
(§3) The in vitro intrinsic clearance (in vitro CLint, in μL/min/10^6 cells) was determined by the following equation.
(§4) Where volume of incubation=0.2 mL and number of hepatocytes per well=0.1×10^6 cells.
(§5) Bioanalytical method: Column—Phenomenex Synergi 4μ Hydro-PR 80A (2.0×30 mm).
(§6) Mobile phase—0.1% formic acid in water (solvent A) and 0.1% formic acid in acetonitrile (solvent B). Column temperature—room temperature. Injection volume—10 μL. MS analysis—API 4000 instrument from AB Inc (Canada) with an ESI interface.

MV-4-11 = assay: Cell Titer-Blue cell viability assay, MV-4-11 (AML); assay type: cell-based; conditions: Homo sapiens, MV4-11; AML cell line MV-4-11, 72 hrs exposure
Protocol: (§7) Anti-cancer efficacy of exemplary compounds of this application was assessed in vitro in different cancer cell lines. Cell viability was examined following treatment at various concentration of inhibitor (0.097656-50 μM) using a cell Titer-Blue cell viability assay. 1×10^4 cells/well were plated in 96-well assay plates in culture medium. All cells were grown in DMEM, IMDM and RPMI-1640 supplemented with 10% FBS. After 24 hrs, test compounds and vehicle controls were added to appropriate wells so the final volume was 100 μl in each well. The cells were cultured for the desired test exposure period (72 hrs) at 37° C. and 5% CO2. The assay plates were removed from 37° C. incubator and 20 μl/well of CellTiter-Blue® Reagent was added. The plates were incubated using standard cell culture conditions for 1-4 hours and the plates were shaken for 10 seconds and fluorescence recorded at 560/590 nm.
(§8) Compound I and II were tested for their efficacy against selected chronic myelogenous leukemia, acute myeloid leukemia and healthy human lung cell lines using the protocol stated above.

HaCat = assay: Cell Titer-Blue cell viability assay, HaCat (healthy cell line); assay type: cell-based; conditions: Homo sapiens, 72 hrs exposure
Protocol: as §7

[2] = Bioavailability / PK study in CD-1 mice (IP injection); assay type: in vivo; conditions: 20 mg/kg IP, plasma
Protocol: The study groups for PK for compound I, II and comparative experiments with AC-3-19 and JPX-0371 experiments are shown in Table 2.
All animals had free access to food and water. Dose formulation processing during dosing: The formulations will be kept stirred at room temperature for at least 15 min before dosing and during the dosing. Pharmacokinetics (PK) Schedule shown below in Table 3.
Approximately 0.03 mL blood was collected at each time point. Blood of each sample was transferred into plastic micro centrifuge tubes containing heparin-Na as anticoagulant. Collection tubes with blood samples and anticoagulant were inverted several times for proper mixing of the tube contents and then placed on wet ice prior to centrifugation for plasma. The blood samples were centrifuged at 4000 g for 5 min at 4° C. to obtain plasma. The samples were stored in a freezer at −75±15° C. prior to analysis. The study used CD-1 mice (male), n=3, at age approx. 6-8 weeks (20-30 g).
Concentrations of compounds in the plasma samples were analyzed using a LC-MS/MS method. WinNonlin (Phoenix™, version 6.1). Other similar software could have also been used for pharmacokinetic calculations. Pharmacokinetic parameters were calculated, whenever possible from the plasma concentration versus time data: IP parameters including T1/2, Cmax, Tmax, AUClast, AUCinf, MRT are calculated.

MOLM-13 = assay: Cell Titer-Blue cell viability assay, MOLM-13 (AML); assay type: cell-based; conditions: Homo sapiens; AML cell line MOLM-13, 72 hrs exposure
Protocol: as §7, §8

Mouse Hepatocyte = assay: Intrinsic clearance in mouse hepatocyte; assay type: in vitro ADME; conditions: time points 0-120 minutes
Protocol: as §1, §2, §3, §4, §5, §6

MRC-9 = assay: Cell Titer-Blue cell viability assay, MRC-9 (healthy cell line); assay type: cell-based; conditions: Homo sapiens, MRC9; healthy cell line MRC-9, 72 hrs exposure
Protocol: as §7, §8

K562 = assay: Cell Titer-Blue cell viability assay, K562 (CML); assay type: cell-based; conditions: Homo sapiens; CML cell line K562, 72 hrs exposure
Protocol: as §7, §8

NIH 3T3 = assay: Cell Titer-Blue cell viability assay, NIH 3T3; assay type: cell-based; conditions: Mus musculus, NIH3T3; NIH 3T3 cells, 72 hrs exposure
Protocol: as §7

[3] = system: non-transformed cells (NIH 3T3 cells, STAT3 null mouse embryo fibroblasts, or mouse thymus stromal cells); conditions: cited from earlier work
[4] = system: xenograft models of lung or breast cancer; conditions: murine xenograft models of lung or breast cancer; cited from earlier work
[5] = system: phosphorylation of Shc, Src, Jak-1/2, Erk1/2 or Akt; conditions: cited from earlier work
[6] = male, CD-1, mouse, ip, 20 mg/kg, individual animal
[7] = male, CD-1, mouse, ip, 20 mg/kg, mean N=3
[8] = male, CD-1, mouse, ip, 20 mg/kg, read-out: t1/2 (converted)

CC(C)(C)c1cc(CN(C(=O)CN(Cc2ccc(Cl)cc2)S(=O)(=O)c2c(F)c(F)c(F)c(F)c2F)c2ccc(C(=O)O)cc2)cc(C2CC2)c1 [Compound II]
half-life at 1 µM [1]: 0.767 h
IC50 (MV-4-11): 0.48 µM

CC(C)(C)c1cc(CN(C(=O)CN(Cc2ccc(Cl)cc2)S(=O)(=O)c2c(F)c(F)c(F)c(F)c2F)c2ccc(C(=O)O)c(O)c2)cc(C2CC2)c1 [Compound I]
IC50 (HaCat): 20 µM
AUC Extr ([2]; individual animal, 20 mg/kg): 0.346% and 0.385% and 0.325%
AUCInf ([2]; individual animal, 20 mg/kg): 7245 ng·h/mL and 6566 ng·h/mL
AUClast ([2]; individual animal, 20 mg/kg): 7217 ng·h/mL and 6545 ng·h/mL
Cmax ([2]; individual animal, 20 mg/kg): 3290 ng/mL and 3480 ng/mL
MRT ([2]; individual animal, 20 mg/kg): 1.99 h and 1.81 h
t1/2 ([2]; individual animal, 20 mg/kg): 3.91 h and 3.97 h
AUC Extr ([2]; mean N=3): 0.352%
AUC(0-inf) [2, 6]: 5820 ng·h/mL
AUC(0-t) [2, 6]: 5800 ng·h/mL
Cmax ([2]; male, CD-1, mouse, ip, 20 mg/kg, individual animal, read-out: Cmax): 3010 ng/mL
MRT ([2]; male, CD-1, mouse, ip, 20 mg/kg, individual animal, read-out: MRT): 1.87 h
half-life ([2]; male, CD-1, mouse, ip, 20 mg/kg, individual animal, read-out: t1/2 (converted)): 3.92 h
AUC(0-inf) [2, 7]: 6540 ng·h/mL
AUC(0-t) [2, 7]: 6520 ng·h/mL
Cmax ([2]; male, CD-1, mouse, ip, 20 mg/kg, mean N=3, read-out: Cmax): 3260 ng/mL
MRT ([2]; male, CD-1, mouse, ip, 20 mg/kg, mean N=3, read-out: MRT): 1.89 h
half-life ([2]; male, CD-1, mouse, ip, 20 mg/kg, mean N=3, read-out: t1/2 (converted)): 3.93 h
half-life ([2]; male, CD-1, mouse, ip, 20 mg/kg, read-out: calculated T1/2 (FIG. 6) (converted)): 3.9 h
Tmax ([2]; male, mouse, mean N=3): 0.5 h
IC50 (MOLM-13): 1.7 to 2.5 µM
half-life at 1 µM [1]: 1.67 h
In vitro T1/2 in mouse hepatocytes (Mouse Hepatocyte): 1.68 h
IC50 (MRC-9): 30 µM
IC50 (K562): 4.1 µM
IC50 (MV-4-11): 0.56 µM

O=C(O)c1ccc(N(Cc2cccc(C3CCCC3)c2)C(=O)CN(Cc2ccc(Cl)cc2)S(=O)(=O)c2c(F)c(F)c(F)c(F)c2F)cc1O [JPX-062, 4-(2-((N-(4-chlorobenzyl)-2,3,4,5,6-pentafluorophenyl)sulfonamido)-N-(3-cyclopentylbenzyl)acetamido)-2-hydroxybenzoic acid]
half-life [2, 8]: 0.94 h
IC50 (MOLM-13): 6.4 µM
IC50 (MV-4-11): 7.9 µM

O=C(O)c1ccc(N(Cc2cccc(C3CCCC3)c2)C(=O)CN(Cc2c(F)c(F)c(F)c(F)c2F)S(=O)(=O)c2c(F)c(F)c(F)c(F)c2F)cc1 [JPX-303, 4-(N-(3-cyclopentylbenzyl)-2-((2,3,4,5,6-pentafluoro-N-((perfluorophenyl)methyl)phenyl)sulfonamido)acetamido)benzoic acid]
IC50 (NIH 3T3): 5.19 µM
half-life [2, 8]: 0.35 h
IC50 (K562): 2.6 µM
IC50 (MV-4-11): 0.21 µM

O=C(O)c1ccc(N(Cc2cccc(C3CCCC3)c2)C(=O)CN(Cc2ccc(Cl)cc2)S(=O)(=O)c2c(F)c(F)c(F)c(F)c2F)cc1 [JPX-313, 4-(2-((N-(4-chlorobenzyl)-2,3,4,5,6-pentafluorophenyl)sulfonamido)-N-(3-cyclopentylbenzyl)acetamido)benzoic acid]
half-life [2, 8]: 0.31 h
IC50 (MOLM-13): 1.1 µM
IC50 (MV-4-11): 0.93 µM

O=C(O)c1ccc(N(Cc2cccc(C3CCCC3)c2)C(=O)CN(Cc2c(F)c(F)c(F)c(F)c2F)S(=O)(=O)c2c(F)c(F)c(F)c(F)c2F)cc1O [JPX-320]
half-life [2, 8]: 0.861 h
IC50 (MOLM-13): 0.8 µM
IC50 (MV-4-11): 1.1 µM

BP-1-102
effect on non-transformed cells [3]: no effect
anti-tumor effect in vivo [4]: dramatic regression in tumor volumes
effect on phosphorylation of Shc, Src, Jak-1/2, Erk1/2 or Akt [5]: little or no effect
